Reference: ChEMBL document CHEMBL1201862, “PubChem BioAssay data set” (2004)
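The compound was tested at five concentrations on cells cultured in 96-well plates, with a 48-hour exposure period. The concentration for 50% growth inhibition is given as GI50.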 The source made the active and inactive calls. Rule as the data show it: active = GI50 up to about 1.1 µM and inactive = higher.

What was measured:
Experiment in all cases: NCI-60 cell line screen, 48 h
UO-31 = tested on: UO-31
HCC 2998 = tested on: HCC 2998
COLO 205 = tested on: COLO 205
MOLT-4 = tested on: MOLT-4
CCRF-CEM = tested on: CCRF-CEM
M14 = tested on: M14
K562 = tested on: K562
HOP-62 = tested on: HOP-62
SK-MEL-28 = tested on: SK-MEL-28
SK-MEL-2 = tested on: SK-MEL-2
HOP-92 = tested on: HOP-92
SW-620 = tested on: SW-620
786-0 = tested on: 786-0
U-251 = tested on: U-251
UACC-62 = tested on: UACC-62
HL-60 = tested on: HL-60
RXF 393 = tested on: RXF 393

Measured: GI50

O=C1c2ccccc2C(=O)c2c(O)c(NCCCNCCO)cc(O)c21
inactive: UO-31 5.87 µM | HCC 2998 3.06 µM | COLO 205 5.92 µM | MOLT-4 2.74 µM | CCRF-CEM 2.47 µM | M14 16.7 µM | K562 1.66 µM | HOP-62 2.44 µM | SK-MEL-28 16.2 µM | SK-MEL-2 18 µM | HOP-92 12.4 µM | SW-620 4.33 µM | 786-0 10.5 µM | U-251 6.15 µM | UACC-62 18.7 µM | HL-60 4.18 µM

COc1ccc(C(=O)Nc2ccccc2)cc1[N+](=O)[O-]
inactive: UO-31 81.5 µM | COLO 205 > 100 µM | MOLT-4 97.5 µM | RXF 393 76.7 µM | CCRF-CEM > 100 µM | M14 > 100 µM | K562 > 100 µM | HOP-62 > 100 µM | SK-MEL-28 > 100 µM | SK-MEL-2 > 100 µM | SW-620 > 100 µM | 786-0 > 100 µM | U-251 > 100 µM | UACC-62 > 100 µM

Cc1cc(O)cc2c1O[C@@]1(C)CCC3[C@@]4(C)CC[C@H](O)C(C)(C)C4CC[C@@]3(C)[C@H]1C2 (stereo partly drawn)
inactive: UO-31 8.45 µM | COLO 205 17.5 µM | MOLT-4 1.55 µM | RXF 393 3.56 µM | CCRF-CEM 2.55 µM | M14 11.3 µM | K562 2.47 µM | SK-MEL-28 6.82 µM | HOP-92 5.09 µM | SW-620 6.14 µM | 786-0 2.32 µM | U-251 2.84 µM | UACC-62 8.11 µM | HL-60 2.99 µM

CC(=O)Nc1ccc(-c2nnc(SCC(=O)Nc3cccc(Cl)c3)o2)cc1
inactive: UO-31 27.7 µM | HCC 2998 18.6 µM | COLO 205 16.6 µM | MOLT-4 19.1 µM | RXF 393 17.4 µM | CCRF-CEM 6.18 µM | M14 11.8 µM | K562 14.4 µM | HOP-62 19.7 µM | SK-MEL-28 17.9 µM | SK-MEL-2 20 µM | SW-620 13.5 µM | 786-0 6.49 µM | U-251 9.84 µM | UACC-62 15.4 µM | HL-60 18.2 µM

CC(NS(=O)(=O)c1ccc([N+](=O)[O-])cc1)C(=O)O (stereo not drawn)
inactive: UO-31 > 100 µM | HCC 2998 > 100 µM | COLO 205 > 100 µM | MOLT-4 > 100 µM | RXF 393 > 100 µM | CCRF-CEM > 100 µM | M14 > 100 µM | K562 > 100 µM | SK-MEL-28 > 100 µM | SK-MEL-2 > 100 µM | HOP-92 > 100 µM | SW-620 > 100 µM | 786-0 > 100 µM | U-251 > 100 µM | UACC-62 > 100 µM | HL-60 > 100 µM

O=C1[C@@H]2C3C=CC([C@H]4C(=O)N(CO)C(=O)[C@@H]34)[C@@H]2C(=O)N1CO
inactive: UO-31 > 65.3 µM | HCC 2998 > 70 µM | COLO 205 > 49.9 µM | MOLT-4 34 µM | RXF 393 > 55.1 µM | CCRF-CEM 25.2 µM | M14 > 50.7 µM | K562 61.2 µM | HOP-62 > 100 µM | SK-MEL-28 > 63.5 µM | SK-MEL-2 > 100 µM | HOP-92 > 78.2 µM | SW-620 26.1 µM | 786-0 41.8 µM | U-251 > 56.2 µM | UACC-62 > 76.2 µM | HL-60 24.9 µM

COC(=O)CC(=O)OC
inactive: UO-31 > 100 µM | HCC 2998 > 100 µM | COLO 205 > 100 µM | MOLT-4 > 100 µM | RXF 393 > 100 µM | CCRF-CEM > 100 µM | M14 > 100 µM | K562 > 100 µM | HOP-62 > 100 µM | SK-MEL-2 > 100 µM | HOP-92 > 100 µM | SW-620 > 100 µM | 786-0 > 100 µM | U-251 > 100 µM | UACC-62 > 100 µM | HL-60 > 100 µM

O=C1NC2C3CC(OCc4ccccc4)(OCc4ccccc4)C2OC3O1 (stereo not drawn)
inactive: UO-31 > 50 µM | HCC 2998 > 50 µM | COLO 205 > 50 µM | MOLT-4 > 50 µM | CCRF-CEM > 50 µM | M14 > 50 µM | K562 > 50 µM | HOP-62 > 50 µM | SK-MEL-28 > 50 µM | SK-MEL-2 > 50 µM | HOP-92 > 50 µM | SW-620 > 50 µM | 786-0 > 50 µM | UACC-62 > 50 µM | HL-60 > 50 µM

CCOC(=O)c1[nH]c2c(OC)n[n+]([O-])cc2c1[N+](=O)[O-]
inactive: UO-31 22 µM | HCC 2998 10 µM | COLO 205 25.1 µM | MOLT-4 31.9 µM | RXF 393 15.8 µM | CCRF-CEM 26.1 µM | M14 19.9 µM | K562 14.4 µM | HOP-62 56.8 µM | SK-MEL-28 15.7 µM | SK-MEL-2 19.8 µM | SW-620 15.7 µM | 786-0 16.4 µM | U-251 17 µM | UACC-62 19.5 µM | HL-60 19.7 µM

Cc1c2c(cc[n+]1C)O[B-](c1ccccc1)(c1ccccc1)O2
inactive: UO-31 33.7 µM | HCC 2998 27.8 µM | COLO 205 32.6 µM | MOLT-4 35.5 µM | RXF 393 52.1 µM | CCRF-CEM 35.9 µM | M14 41.5 µM | K562 46 µM | HOP-62 > 100 µM | SK-MEL-2 91.2 µM | SW-620 26.8 µM | 786-0 71.9 µM | U-251 53.2 µM | UACC-62 16.3 µM | HL-60 35.1 µM

Clc1ccc(C2=Nc3ccccc3SC(c3ccc(Cl)c(Cl)c3)C2)c(Cl)c1 (stereo not drawn)
inactive: UO-31 14.4 µM | HCC 2998 14.6 µM | COLO 205 18.5 µM | MOLT-4 4.9 µM | RXF 393 15.6 µM | CCRF-CEM 3.11 µM | M14 16 µM | K562 6 µM | HOP-62 12.6 µM | SK-MEL-28 15.7 µM | SK-MEL-2 17.4 µM | HOP-92 13.8 µM | SW-620 6.9 µM | 786-0 14.5 µM | U-251 17.8 µM | UACC-62 15.2 µM | HL-60 8.45 µM

COC1O[C@@H]2COC(C)(C)O[C@@H]2C(=O)N1Nc1ccc([N+](=O)[O-])cc1 (stereo partly drawn)
inactive: UO-31 > 100 µM | HCC 2998 > 100 µM | COLO 205 > 100 µM | MOLT-4 > 100 µM | RXF 393 > 100 µM | CCRF-CEM > 10 µM | M14 > 100 µM | K562 > 100 µM | HOP-62 > 100 µM | SK-MEL-28 > 100 µM | SK-MEL-2 > 100 µM | HOP-92 > 100 µM | SW-620 25.1 µM | 786-0 34.2 µM | U-251 > 100 µM | UACC-62 > 100 µM | HL-60 > 100 µM

COc1ccc(C2=NC(CO)[C@H](c3ccccc3)O2)cc1OC (stereo partly drawn)
inactive: UO-31 > 100 µM | HCC 2998 > 100 µM | COLO 205 > 100 µM | MOLT-4 > 100 µM | CCRF-CEM > 100 µM | M14 > 100 µM | K562 > 100 µM | HOP-62 > 100 µM | SK-MEL-2 > 100 µM | HOP-92 > 100 µM | SW-620 > 100 µM | 786-0 > 100 µM | UACC-62 53.6 µM | HL-60 > 100 µM
